{"source": "patent US20170314074A1", "about": "“LPA-ASSOCIATED PROTEIN AND RNA EXPRESSION” (Intermune, Inc., priority 2014, published 2017)", "tested_on": "fibroblasts and/or epithelial cells", "experiment": "mRNA expression after LPA induction, Affymetrix Human Gene ST arrays, fibroblasts and/or epithelial cells (Table 3)", "format": "cell-based", "method": "Changes in gene expression after 3 hours of LPA induction were profiled on Affymetrix Human Gene ST 2.0 microarrays; differentially expressed genes identified by ANOVA with FDR <0.05 and fold-change >1.2. Process networks associated with differentially expressed genes were defined using MetaCore. Changes in secreted protein expression after 24 hours of LPA induction were profiled on an aptamer-based proteomic platform (1129 proteins); differentially expressed proteins identified by t-test.\nTotal RNA was isolated from normal human lung fibroblasts, human bronchial epithelial cells, and human pulmonary alveolar epithelial cells treated for […] with LPA and/or LPAR1 inhibitor. Each treatment condition was assayed in triplicate. Samples were profiled on Affymetrix Human Gene ST Arrays 1.0 and/or 2.0 after preparation using the Ambion WT Expression Kit according to manufacturers' instructions.\nData normalization and all subsequent analyses were performed in Partek Genomics Suite (Partek, St. Louis, Mo.). Data were normalized using the Robust Multi-array Average (RMA) algorithm. Differentially expressed genes were identified by ANOVA with correction for multiple comparisons with p-value with FDR<0.05. A fold-change cut-off was not strictly applied, although the majority of the differentially expressed genes identified have fold-changes greater than 1.2. […]", "data": [{"substance": "lysophosphatidic acid [LPA]", "values": [{"measurement": "changes in gene expression induced by LPA", "result": "induced significant changes in gene expression"}]}]}
